The results in this text go back to US20250353891A1 (MEDIMMUNE LIMITED, priority 2022, published 2025).

Like-named read-outs stand apart in the source and are kept apart here. Starred links: 1 amine or outer side, 2 acyl side, 3 side chain; linkers in the order of their positions; H or OH if unused. Non-standard residues stand in square brackets, D forms with d. Residues, ends and D or L forms follow the SMILES beside them. Groups on a side chain read outwards from the residue. *: point of attachment. C18 diacid = O=C(O)CCCCCCCCCCCCCCCCC(=O)*; γGlu = O=C(O)[C@H](CCC(=O)[*:2])N[*:1]; αMeF = C[C@](N)(Cc1ccccc1)C(=O)O; AEEA = NCCOCCOCC(=O)O; Aib = CC(C)(N)C(=O)O

By EC50 is commonly meant the concentration that produces a half-maximal response.

The target of test [1] is human GLP-1 receptor (hGLP-1R) (Homo sapiens, UniProt P43220). The experiment in a line: cAMP production (HTRF) in CHO cells expressing hGLP-1R. Type of test: cell-based. Further details: expressed in transfected cells. Particulars: for EC50: cAMP in CHO hGLP-1R cells, geometric mean, read-out: hGLP-1R EC50; for % Relative Potency Ratio: % GLP-1R activity relative to GLP-1 / % GlucR activity relative to glucagon. A digest of the protocol:
(§1)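 Cells were resuspended in assay buffer at batch-optimized density, typically 1×10^5 cells/mL for hGLP-1R and 2×10^5 cells/mL for hGCGR. After 30 min incubation at room temperature with compound, cAMP was measured by two-step HTRF. EC50 values came from 4-parameter logistic fits of % Delta F.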
For orientation: cAMP levels reflect the balance of adenylyl cyclase and phosphodiesterase activity.

Test [2] deals with human glucagon receptor (hGCGR) (Homo sapiens, UniProt P47871). The experiment in a line: cAMP production (HTRF) in CHO cells expressing hGCGR. Type of test: cell-based. Further details: expressed in transfected cells. The conditions noted are these: cAMP in CHO hGCGR cells, geometric mean, read-out: hGluc-R EC50. In outline:
as §1

The mark [3] stands for this setting: Table 6, peptides modified at position 17.
Setting [4] is: Table 7, peptides modified at position 20.

Sequence of human glucagon receptor (hGCGR) (P47871 26-477): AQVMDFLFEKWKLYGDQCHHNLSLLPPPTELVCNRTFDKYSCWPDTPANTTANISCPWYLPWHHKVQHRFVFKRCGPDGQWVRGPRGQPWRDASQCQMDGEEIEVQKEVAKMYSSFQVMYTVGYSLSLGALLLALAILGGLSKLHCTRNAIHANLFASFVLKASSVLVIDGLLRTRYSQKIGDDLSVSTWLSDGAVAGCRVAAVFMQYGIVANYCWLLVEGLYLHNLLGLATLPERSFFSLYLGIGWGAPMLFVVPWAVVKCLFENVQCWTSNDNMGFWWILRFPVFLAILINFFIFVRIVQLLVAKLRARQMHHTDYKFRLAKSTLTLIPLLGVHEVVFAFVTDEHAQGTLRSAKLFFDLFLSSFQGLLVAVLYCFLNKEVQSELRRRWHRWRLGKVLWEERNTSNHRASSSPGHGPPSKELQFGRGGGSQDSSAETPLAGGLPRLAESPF
Sequence of human GLP-1 receptor (hGLP-1R) (P43220 24-463): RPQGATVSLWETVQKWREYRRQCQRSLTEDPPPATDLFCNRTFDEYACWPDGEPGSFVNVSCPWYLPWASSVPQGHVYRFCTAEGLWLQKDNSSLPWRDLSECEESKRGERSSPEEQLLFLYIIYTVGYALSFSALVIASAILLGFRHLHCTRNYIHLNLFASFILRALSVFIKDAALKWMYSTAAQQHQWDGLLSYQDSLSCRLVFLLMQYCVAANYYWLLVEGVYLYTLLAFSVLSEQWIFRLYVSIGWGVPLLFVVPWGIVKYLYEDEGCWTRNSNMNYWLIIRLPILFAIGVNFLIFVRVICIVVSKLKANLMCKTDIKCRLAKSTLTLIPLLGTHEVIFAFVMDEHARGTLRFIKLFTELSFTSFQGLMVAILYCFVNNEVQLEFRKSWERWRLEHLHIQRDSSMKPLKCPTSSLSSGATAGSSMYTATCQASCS

Regarding `CC[C@H](C)[C@H](NC(=O)[C@H](Cc1ccccc1)NC(=O)[C@H](CC(=O)O)NC(=O)[C@H](CCCNC(=N)N)NC(=O)[C@H](C)NC(=O)[C@H](CCCNC(=N)N)NC(=O)[C@H](CCCCNC(=O)COCCOCCNC(=O)COCCOCCNC(=O)CC[C@H](NC(=O)CCCCCCCCCCCCCCCCC(=O)O)C(=O)O)NC(=O)[C@@H](NC(=O)[C@H](CC(=O)O)NC(=O)[C@H](CC(C)C)NC(=O)[C@](C)(Cc1ccccc1)NC(=O)[C@H](CCCCN)NC(=O)[C@H](CO)NC(=O)[C@@H](NC(=O)[C@H](CC(=O)O)NC(=O)[C@H](CO)NC(=O)[C@@H](NC(=O)[C@H](Cc1ccccc1)NC(=O)[C@@H](NC(=O)CNC(=O)[C@H](CCC(N)=O)NC(=O)C(C)(C)NC(=O)[C@@H](N)Cc1c[nH]cn1)[C@@H](C)O)[C@@H](C)O)C(C)C)[C@@H](C)O)C(=O)N[C@@H](C)C(=O)N[C@@H](Cc1c[nH]c2ccccc12)C(=O)N[C@@H](CC(C)C)C(=O)N[C@@H](CC(C)C)C(=O)NC(C)(C)C(=O)N[C@@H](CCC(=O)O)C(=O)O` [Peptide 198] (H-H[Aib]QGTFTSDVSK[αMeF]LDTK([AEEA-AEEA-γGlu-C18 diacid])RARDFIAWLL[Aib]E-OH; N-terminus assumed), the concentration giving a half-maximal response (EC50) in test [1] (setting [3]) came to 0.212 nM; in test [2] (setting [3]), 0.302 nM. Also, in test [1] (Table 6), the “% Relative Potency Ratio” value was 2.8.
Regarding `CC[C@H](C)[C@H](NC(=O)[C@H](Cc1ccccc1)NC(=O)[C@H](CC(=O)O)NC(=O)[C@H](CCCNC(=N)N)NC(=O)[C@H](C)NC(=O)[C@H](CCCNC(=N)N)NC(=O)[C@H](CCCCNC(=O)COCCOCCNC(=O)COCCOCCNC(=O)CC[C@H](NC(=O)CCCCCCCCCCCCCCCCC(=O)O)C(=O)O)NC(=O)[C@@H](NC(=O)[C@H](CC(=O)O)NC(=O)[C@H](CC(C)C)NC(=O)[C@](C)(Cc1ccccc1)NC(=O)[C@H](CCCCN)NC(=O)[C@H](CO)NC(=O)[C@@H](NC(=O)[C@H](CC(=O)O)NC(=O)[C@H](CO)NC(=O)[C@@H](NC(=O)[C@H](Cc1ccccc1)NC(=O)[C@@H](NC(=O)CNC(=O)[C@H](CCC(N)=O)NC(=O)C(C)(C)NC(=O)[C@@H](N)Cc1c[nH]cn1)[C@@H](C)O)[C@@H](C)O)C(C)C)[C@@H](C)O)C(=O)N[C@@H](C)C(=O)N[C@@H](Cc1c[nH]c2ccccc12)C(=O)N[C@@H](CC(C)C)C(=O)N[C@@H](CC(C)C)C(=O)N[C@@H](CCC(=O)O)C(=O)NC(C)(C)C(=O)NCC(=O)O` [Peptide 199] (H-H[Aib]QGTFTSDVSK[αMeF]LDTK([AEEA-AEEA-γGlu-C18 diacid])RARDFIAWLLE[Aib]G-OH), the figures for the EC50 in test [1] (setting [3]) and in test [2] (setting [3]) were 0.0316 nM and 0.18 nM, respectively. In addition, the “% Relative Potency Ratio” value in test [1] (Table 6) stood at 11.3.
In the same order, the values of `CC(C)C[C@H](NC(=O)[C@H](Cc1c[nH]c2ccccc12)NC(=O)[C@H](C)NC(=O)[C@@H](NC(=O)[C@H](Cc1ccccc1)NC(=O)[C@H](CC(=O)O)NC(=O)[C@H](CCCNC(=N)N)NC(=O)[C@H](C)NC(=O)[C@H](CCCNC(=N)N)NC(=O)[C@H](CCCCNC(=O)COCCOCCNC(=O)COCCOCCNC(=O)CC[C@H](NC(=O)CCCCCCCCCCCCCCCCC(=O)O)C(=O)O)NC(=O)[C@@H](NC(=O)[C@H](CC(=O)O)NC(=O)[C@H](CC(C)C)NC(=O)[C@](C)(Cc1ccccc1)NC(=O)[C@H](CCCCN)NC(=O)[C@H](CO)NC(=O)[C@@H](NC(=O)[C@H](CC(=O)O)NC(=O)[C@H](CO)NC(=O)[C@@H](NC(=O)[C@H](Cc1ccccc1)NC(=O)[C@@H](NC(=O)CNC(=O)[C@H](CCC(N)=O)NC(=O)C(C)(C)NC(=O)[C@@H](N)Cc1c[nH]cn1)[C@@H](C)O)[C@@H](C)O)C(C)C)[C@@H](C)O)C(C)C)C(=O)N[C@@H](CC(C)C)C(=O)N[C@@H](CCC(=O)O)C(=O)NC(C)(C)C(=O)NCC(=O)O` [Peptide 200] (H-H[Aib]QGTFTSDVSK[αMeF]LDTK([AEEA-AEEA-γGlu-C18 diacid])RARDFVAWLLE[Aib]G-OH) are 0.0227 nM, 0.0977 nM and 8.5.
In the same order, the values of `CC(C)C[C@H](NC(=O)[C@H](Cc1c[nH]c2ccccc12)NC(=O)[C@H](C)NC(=O)[C@@H](NC(=O)[C@H](Cc1ccccc1)NC(=O)[C@H](CC(=O)O)NC(=O)[C@H](CCCNC(=N)N)NC(=O)[C@H](C)NC(=O)[C@H](CCCNC(=N)N)NC(=O)[C@H](CCCCNC(=O)COCCOCCNC(=O)COCCOCCNC(=O)CC[C@H](NC(=O)CCCCCCCCCCCCCCCCC(=O)O)C(=O)O)NC(=O)[C@@H](NC(=O)[C@H](CC(=O)O)NC(=O)[C@H](CC(C)C)NC(=O)[C@](C)(Cc1ccccc1)NC(=O)[C@H](CCCCN)NC(=O)[C@H](CO)NC(=O)[C@@H](NC(=O)[C@H](CC(=O)O)NC(=O)[C@H](CO)NC(=O)[C@@H](NC(=O)[C@H](Cc1ccccc1)NC(=O)[C@@H](NC(=O)CNC(=O)[C@H](CCC(N)=O)NC(=O)C(C)(C)NC(=O)[C@@H](N)Cc1c[nH]cn1)[C@@H](C)O)[C@@H](C)O)C(C)C)[C@@H](C)O)C(C)C)C(=O)N[C@@H](CCC(=O)O)C(=O)N[C@@H](C)C(=O)NC(C)(C)C(=O)NCC(=O)O` [Peptide 201] (H-H[Aib]QGTFTSDVSK[αMeF]LDTK([AEEA-AEEA-γGlu-C18 diacid])RARDFVAWLEA[Aib]G-OH) are 0.0227 nM, 0.183 nM and 15.9.
In the case of `CC(C)C[C@H](NC(=O)[C@H](Cc1c[nH]c2ccccc12)NC(=O)[C@H](CCC(N)=O)NC(=O)[C@@H](NC(=O)[C@H](Cc1ccccc1)NC(=O)[C@H](CC(=O)O)NC(=O)[C@H](CCCNC(=N)N)NC(=O)[C@H](C)NC(=O)[C@H](CCCNC(=N)N)NC(=O)[C@H](CCCCNC(=O)COCCOCCNC(=O)COCCOCCNC(=O)CC[C@H](NC(=O)CCCCCCCCCCCCCCCCC(=O)O)C(=O)O)NC(=O)[C@@H](NC(=O)[C@H](CC(=O)O)NC(=O)[C@H](CC(C)C)NC(=O)[C@](C)(Cc1ccccc1)NC(=O)[C@H](CCCCN)NC(=O)[C@H](CO)NC(=O)[C@@H](NC(=O)[C@H](CC(=O)O)NC(=O)[C@H](CO)NC(=O)[C@@H](NC(=O)[C@H](Cc1ccccc1)NC(=O)[C@@H](NC(=O)CNC(=O)[C@H](CCC(N)=O)NC(=O)C(C)(C)NC(=O)[C@@H](N)Cc1c[nH]cn1)[C@@H](C)O)[C@@H](C)O)C(C)C)[C@@H](C)O)C(C)C)C(=O)N[C@@H](CCC(=O)O)C(=O)N[C@@H](C)C(=O)NC(C)(C)C(=O)NCC(=O)O` [Peptide 202] (H-H[Aib]QGTFTSDVSK[αMeF]LDTK([AEEA-AEEA-γGlu-C18 diacid])RARDFVQWLEA[Aib]G-OH; N-terminus assumed), the figures for the 50% effective concentration (EC50) in test [1] (setting [3]) and in test [2] (setting [3]) were 0.0178 nM and 0.242 nM, respectively. For the same molecule, the “% Relative Potency Ratio” value in test [1] (Table 6) amounted to 26.9.
In the case of `CC[C@H](C)[C@H](NC(=O)[C@H](Cc1c[nH]c2ccccc12)NC(=O)[C@H](CCC(N)=O)NC(=O)[C@@H](NC(=O)[C@H](Cc1ccccc1)NC(=O)[C@H](CC(=O)O)NC(=O)[C@H](CCCCNC(=O)COCCOCCNC(=O)COCCOCCNC(=O)CC[C@H](NC(=O)CCCCCCCCCCCCCCCCC(=O)O)C(=O)O)NC(=O)[C@H](C)NC(=O)[C@H](C)NC(=O)[C@H](CCCNC(=N)N)NC(=O)[C@H](CO)NC(=O)[C@H](CC(=O)O)NC(=O)[C@H](CC(C)C)NC(=O)[C@](C)(Cc1ccccc1)NC(=O)[C@H](CCCCN)NC(=O)[C@H](CO)NC(=O)[C@@H](NC(=O)[C@H](CC(=O)O)NC(=O)[C@H](CO)NC(=O)[C@@H](NC(=O)[C@](C)(Cc1ccccc1)NC(=O)[C@H](CO)NC(=O)CNC(=O)[C@H](Cc1c[nH]cn1)NC(=O)C(C)(C)NC(=O)[C@@H](N)Cc1c[nH]cn1)[C@@H](C)O)C(C)C)C(C)C)C(=O)N[C@@H](C)C(=O)N[C@@H](CC(N)=O)C(=O)N[C@H](C(N)=O)[C@@H](C)O` [Peptide 205] (H-H[Aib]HGS[αMeF]TSDVSK[αMeF]LDSRAAK([AEEA-AEEA-γGlu-C18 diacid])DFVQWIANT-NH2), the results for the half-maximal effective concentration (EC50) in test [1] (setting [4]) and in test [2] (setting [4]) were 0.0299 nM and 0.00814 nM, respectively. For the same molecule, the “% Relative Potency Ratio” value in test [1] (Table 7) came to 0.5.
Take `CC[C@H](C)[C@H](NC(=O)[C@H](Cc1c[nH]c2ccccc12)NC(=O)[C@H](CCC(N)=O)NC(=O)[C@@H](NC(=O)[C@H](Cc1ccccc1)NC(=O)[C@H](CC(=O)O)NC(=O)[C@H](CCCCNC(=O)COCCOCCNC(=O)COCCOCCNC(=O)CC[C@H](NC(=O)CCCCCCCCCCCCCCCCC(=O)O)C(=O)O)NC(=O)[C@H](C)NC(=O)C(C)(C)NC(=O)[C@H](CCCNC(=N)N)NC(=O)[C@H](CO)NC(=O)[C@H](CC(=O)O)NC(=O)[C@H](CC(C)C)NC(=O)[C@](C)(Cc1ccccc1)NC(=O)[C@H](CCCCN)NC(=O)[C@H](CO)NC(=O)[C@@H](NC(=O)[C@H](CC(=O)O)NC(=O)[C@H](CO)NC(=O)[C@@H](NC(=O)[C@](C)(Cc1ccccc1)NC(=O)[C@H](CO)NC(=O)CNC(=O)[C@H](Cc1c[nH]cn1)NC(=O)C(C)(C)NC(=O)[C@@H](N)Cc1c[nH]cn1)[C@@H](C)O)C(C)C)C(C)C)C(=O)N[C@@H](C)C(=O)N[C@@H](CC(N)=O)C(=O)N[C@H](C(N)=O)[C@@H](C)O` [Peptide 206] (H-H[Aib]HGS[αMeF]TSDVSK[αMeF]LDSR[Aib]AK([AEEA-AEEA-γGlu-C18 diacid])DFVQWIANT-NH2): the concentration giving a half-maximal response (EC50) was found to be 0.0709 nM in test [1] (setting [4]) and 0.0182 nM in test [2] (setting [4]). Further, the “% Relative Potency Ratio” value in test [1] (Table 7) is on record as 0.5.
